Patent US9481743B2, “Polyelectrolyte polymers, their manufacture and use” (priority 2013, dated 2016)
Several values for one entry are separate records, joined by “and”; a condition that tells them apart may be missing. Equal entries are not always repeated.

How the values were obtained:
Escherichia coli = test: Antibacterial drop-test of UV-cured films; type: cell-based
Method: (§1) A desired amount of 2-hydrox-2-methy-1-phenyl-propanone (5 wt %), diacrylate crosslinker (EB 130, a cyclic aliphatic diacrylate) and the acrylate-appended phosphonium salt were weighed and combined in screw top vials. The mixture was then insonated at 45° C. for 20 min until the solutions were free of particulate and haze. After cooling to room temperature, the solutions were cast on polyester films and irradiated with UV light three times. Leached films were treated with H2O (Milli-Q) in a wrist action shaker for 4 hours, followed by washing with H2O (2×10 mL) and air drying. Both leached and unleached films were subjected to the antibacterial test (below).
(§2) The antibacterial activities of the charged surfaces against Gram-negative bacteria Escherichia coli […] were studied using the antibacterial drop-test. E. coli precultured in 15 mL of nutrient broth (Difco™ BD) at 37° C. for 24 h, was washed by centrifuging at 4000 rpm for 10 min. After removing the supernatant, the cells were washed with phosphate buffered saline (PBS) twice and re-suspended and diluted to approximately 10^6 colony forming units (CFU)/mL in PBS solution. The samples were placed in sterilized Petri dishes. 100 μL of PBS solution with bacteria was added dropwise onto sterilized surfaces until completely covered. The petri dishes were sealed and placed in an incubator at 37° C. with the humidity 46%. After 4 hr, the bacteria were washed from the surface of the sample by using 10 mL PBS in the sterilized Petri dish. From this solution, 100 μL was spread onto solid plate count agar (Difco™ BD). After incubation for 24 h at 37° C., the number of surviving bacterial colonies on the Petri dishes were counted. The results after multiplication with the dilution factor were expressed as CFU per mL. The above experiments were carried out in triplicate for each sample. The percentage of killed bacteria was calculated as [(CFU of initial bacterial suspension−CFUs following surface contact)/CFU of initial bacterial suspension]×100.

S. Aureus = test: Antibacterial drop-test of UV-cured films; type: cell-based
Method: as §1, §2

[1] = Density of surface phosphonium cations by UV-vis (fluorescein dye); type: physicochemical
Method: Characterization by FTIR-ATR spectroscopy confirmed the conversion of acrylate functionality post polymerization. Percent cure was determined using a literature procedure. The intensity of the acrylate vibration at 810 cm^−1 was compared to the C═O vibration at 1750 cm^−1 both before and after irradiation. […] The density of surface phosphonium cations was determined by UV-vis spectroscopy as described in a literature procedure.
Characterization by FTIR-ATR spectroscopy confirmed the conversion of acrylate functionality post polymerization. […] The density of surface phosphonium cations was determined by UV-vis spectroscopy as described in a literature procedure^23. […] This assumes a 1:1 ratio of positive and negative charge on the surface.
Before deposition of [Au25L18]^−, the number of accessible charges on the PPF was quantified. A known protocol utilizing fluorescein dye was employed to determine the value for the above system and to relate this quantity back to the percentage of phosphonium monomers that were included in the original formulation.^23 This procedure is commonly used as a characterization technique for films containing surface-bound quaternary salts. […] At 30 wt %, a dramatic increase in the number of quaternary charges was observed (1.5×10^15 cations/cm^2). Increasing the salt content to 37.5 and 47.5 wt % yielded surfaces with 8.2×10^15 and 1.4×10^16 cations/cm^2, respectively. […] Use of low melting phosphonium salts permits formation of a formulation having low viscosity despite the high ion content, allowing for ease of handling and deposition. Use of high melting point organic salts in a similar fashion generates formulations with relatively high viscosities or significant solubility issues, which manifest themselves in poor films. Advantages of the phosphonium-based acrylate monomer in the fabrication of the charged surfaces can thus be seen.

[2] = Solubility/miscibility tests; type: physicochemical
Method: Approximately 5-10 mg of compound was added to a test tube followed by the addition of 1.5 mL of solvent followed by 5 seconds of gentle stirring. If dissolution was not observed immediately, the mixture was further stirred and sonicated for 30 seconds. Material was deemed soluble if the resulting solution was free of particulate and haze, determined by visual inspection. […] If solutions remained hazy, they were referred to as emulsion mixtures.

[3] = Slow heating within a mass spectrometer, perfluoro-tert-butanol fragment m/z 197 monitored; type: physicochemical; conditions: heated slowly within a mass spectrometer
Source text: Compound [3b]Cl was heated slowly within a mass spectrometer and the fragments of perfluoro-tert-butanol was monitored.

[4] = Thermal degradation by thermal gravimetric analysis (TGA); type: physicochemical; conditions: 10° C./min, nitrogen
Method: Nuclear Magnetic Resonance (NMR) spectroscopy was conducted on a Varian INOVA 400 MHz spectrometer (^1H, 400.09 MHz, ^31P{^1H} 161.82 MHz, ^19F, 376.15 MHz). All ^1H spectra were referenced relative to tetramethyl silane (CDCl3; ^1H δH=7.26 ppm and CO(CD3)2; ^1H δH=2.04). The chemical shifts for ^31P{H} NMR spectroscopy were referenced using an external standard (85% H3PO4; δP=0). The chemical shifts for ^19F{^1H} NMR spectroscopy were also referenced using an external standard (trifluorotoluene; δF=−63.9 ppm). Infrared spectra were recorded using a Bruker Tensor 27 spectrometer using attenuated total reflectance mode (ATR) using a ZnSe crystal. […] Water contact angles (WCA) were measured using a Kruss DSA100 Drop Shape Analyzer and analyzed using Drop Shape Analysis. Thermal degradation was determined using Thermal Gravimetric Analysis (TGA) on a Q600 SDT TA instrument. […] Glass transition temperatures were determined using Differential Scanning calorimetry (DSC) on a DSC Q20 TA instrument. […] Melting points of all HFPS were determined using a Gallenkamp Variable Heater in air. Mass spectrometry was recorded in both positive and negative ion modes using electrospray ionization (ESI) Micromass LCT spectrometer. […] The positive or negative secondary ions were extracted from the sample surface, mass separated and detected via a reflectron-type time-of-flight analyser. […]

[5] = of the protonated form; cited from earlier work

C=CC(=O)OCCC[P+](CCCC)(CCCC)CCCC.[Br-] [[4]Br, (3-(acryloyloxy)propyl)tributylphosphonium bromide]
% E. coli killed (unleached) (Escherichia coli; 25% [4]Br in EB 130 film): No
% E. coli killed (unleached) (Escherichia coli; 30% [4]Br in EB 130 film): 30 ± 5%
% E. coli killed (unleached) (Escherichia coli; 37.5% [4]Br in EB 130 film): 46 ± 7%
% E. coli killed (unleached) (Escherichia coli; 47.5% [4]Br in EB 130 film): 82 ± 9%
% S. Aureus killed (unleached) (S. Aureus; 30% [4]Br in EB 130 film): 100 ± 2%
% S. Aureus killed (leached) (S. Aureus; 47.5% [4]Br in EB 130 film, leached): 100 ± 2%
% S. Aureus killed (unleached) (S. Aureus; 47.5% [4]Br in EB 130 film): 100 ± 2%
Charge/Unit area ([1]; 25% [4]Br film): 0 ×10^x Y^+/cm^2
Charge/Unit area ([1]; 30% [4]Br film): 1.47 × 10^15 ×10^x Y^+/cm^2
Charge/Unit area ([1]; 37.5% [4]Br film): 8.18 × 10^15 ×10^x Y^+/cm^2
Charge/Unit area ([1]; 47.5% [4]Br film): 1.42 × 10^16 ×10^x Y^+/cm^2

C=Cc1ccc(C[P+](CCCOC(C(F)(F)F)(C(F)(F)F)C(F)(F)F)(CCCOC(C(F)(F)F)(C(F)(F)F)C(F)(F)F)CCCOC(C(F)(F)F)(C(F)(F)F)C(F)(F)F)cc1.[Cl-] [[3b]Cl]
Solubility (in words) ([2]; chloroform): soluble
Solubility (in words) ([2]; dichloromethane): soluble
Solubility (in words) ([2]; most solvents including diethyl ether): high solubility
Time at which signal at m/z=197 was at a maximum [3]: 889 s
Time until fragment at m/z=197 was observed [3]: 532 s
Decomposition Point [4]: 198 °C and 197* ° C.

OC(C(F)(F)F)(C(F)(F)F)C(F)(F)F [perfluoro-tert-butoxide]
pKa [5]: 5.2
